Where “and” joins values, the source holds several entries; their conditions need not be identical. Equal values may be shown once. Read-outs that look alike come from different tables or passages of the source.
Test system: DENV-2 RL
Experiment: microbe, parasite or virus in culture
Format: cell-based

Q: Which results are given for `COc1cc(N[C@H](C(=O)c2c[nH]c3ccc(OC(F)(F)F)cc23)c2ccc(Cl)cc2OC)cc(S(C)(=O)=O)c1` [JNJ-1802]?
A: EC50 (A sample, passage 20, read-out: EC50 values Ave): 32.2 nM; EC50 (A sample, passage 21, read-out: EC50 values Ave): 32.2 nM; EC50 (A sample, passage 22, read-out: EC50 values Ave): 32.2 nM; EC50 (A sample, passage 23, read-out: EC50 values Ave): 32.2 nM; EC50 (B sample, passage 29, read-out: EC50 values Ave): 32.2 nM; EC50 (B sample, passage 30, read-out: EC50 values Ave): 32.2 nM; EC50 (Dengue virus, DENV2, Vero, read-out: EC50 by microscopic evaluation of CPE, experiment A, passage 0): 0.06 nM; EC50 (Dengue virus, DENV2, Vero, read-out: EC50 by microscopic evaluation of CPE, experiment A, passage 5): 0.06 nM; EC50 (Dengue virus, DENV2, Vero, read-out: EC50 by microscopic evaluation of CPE, experiment A, passage 10): 0.25 nM; EC50 (Dengue virus, DENV2, Vero, read-out: EC50 by microscopic evaluation of CPE, experiment A, passage 15): 1 nM; EC50 (Dengue virus, DENV2, Vero, read-out: EC50 by microscopic evaluation of CPE, experiment A, passage 25): 64 nM; EC50 (Dengue virus, DENV2, Vero, read-out: EC50 by microscopic evaluation of CPE, experiment A, passage 30): 260 nM; EC50 (Dengue virus, DENV2, Vero, read-out: EC50 by microscopic evaluation of CPE, experiment A, passage 35): 260 nM; EC50 (Dengue virus, DENV2, Vero, read-out: EC50 by microscopic evaluation of CPE, experiment A, passage 40): 1290 nM; EC50 (Dengue virus, DENV2, Vero, read-out: EC50 by microscopic evaluation of CPE, experiment A, passage 42): 1290 nM; EC50 (Dengue virus, DENV2, Vero, read-out: EC50 by microscopic evaluation of CPE, experiment B, passage 0): 0.06 nM; EC50 (Dengue virus, DENV2, Vero, read-out: EC50 by microscopic evaluation of CPE, experiment B, passage 5): 0.06 nM; EC50 (Dengue virus, DENV2, Vero, read-out: EC50 by microscopic evaluation of CPE, experiment B, passage 20): 0.5 nM; EC50 (Dengue virus, DENV2, Vero, read-out: EC50 by microscopic evaluation of CPE, experiment B, passage 25): 4 nM; EC50 (Dengue virus, DENV2, Vero, read-out: EC50 by microscopic evaluation of CPE, experiment B, passage 35): 80 nM; EC50 (Dengue virus, DENV2, Vero, read-out: EC50 by microscopic evaluation of CPE, experiment B, passage 45): 640 nM; EC50 (Dengue virus, DENV2, Vero, read-out: EC50 by microscopic evaluation of CPE, experiment B, passage 50): 1290 nM; EC50 (Dengue virus, DENV2, Vero, read-out: EC50 values Ave, A sample, passage 1): 3.7e-05 µg/mL and 0.063 nM; EC50 (Dengue virus, DENV2, Vero, read-out: EC50 values Ave, A sample, passage 2): 3.7e-05 µg/mL and 0.063 nM; EC50 (Dengue virus, DENV2, Vero, read-out: EC50 values Ave, A sample, passage 3): 3.7e-05 µg/mL and 0.063 nM; EC50 (Dengue virus, DENV2, Vero, read-out: EC50 values Ave, A sample, passage 4): 3.7e-05 µg/mL and 0.063 nM; EC50 (Dengue virus, DENV2, Vero, read-out: EC50 values Ave, A sample, passage 5): 3.7e-05 µg/mL and 0.063 nM; EC50 (Dengue virus, DENV2, Vero, read-out: EC50 values Ave, A sample, passage 6): 0.126 nM; EC50 (Dengue virus, DENV2, Vero, read-out: EC50 values Ave, A sample, passage 7): 3.7e-05 µg/mL and 0.063 nM; EC50 (Dengue virus, DENV2, Vero, read-out: EC50 values Ave, A sample, passage 8): 3.7e-05 µg/mL and 0.063 nM; EC50 (Dengue virus, DENV2, Vero, read-out: EC50 values Ave, A sample, passage 9): 0.126 nM; EC50 (Dengue virus, DENV2, Vero, read-out: EC50 values Ave, A sample, passage 10): 0.000146 µg/mL and 0.251 nM; EC50 (Dengue virus, DENV2, Vero, read-out: EC50 values Ave, A sample, passage 11): 0.000146 µg/mL and 0.251 nM; EC50 (Dengue virus, DENV2, Vero, read-out: EC50 values Ave, A sample, passage 12): 0.000146 µg/mL and 0.251 nM; EC50 (Dengue virus, DENV2, Vero, read-out: EC50 values Ave, A sample, passage 13): 0.000293 µg/mL and 0.503 nM; EC50 (Dengue virus, DENV2, Vero, read-out: EC50 values Ave, A sample, passage 14): 1.01 nM; EC50 (Dengue virus, DENV2, Vero, read-out: EC50 values Ave, A sample, passage 15): 1.01 nM; EC50 (Dengue virus, DENV2, Vero, read-out: EC50 values Ave, A sample, passage 16): 0.00117 µg/mL and 2.01 nM; EC50 (Dengue virus, DENV2, Vero, read-out: EC50 values Ave, A sample, passage 17): 0.00234 µg/mL and 4.02 nM; EC50 (Dengue virus, DENV2, Vero, read-out: EC50 values Ave, A sample, passage 18): 0.00469 µg/mL and 8.04 nM; EC50 (Dengue virus, DENV2, Vero, read-out: EC50 values Ave, A sample, passage 24): 0.0375 µg/mL and 64.3 nM; EC50 (Dengue virus, DENV2, Vero, read-out: EC50 values Ave, A sample, passage 25): 0.0375 µg/mL and 64.3 nM; EC50 (Dengue virus, DENV2, Vero, read-out: EC50 values Ave, A sample, passage 26): 129 nM; EC50 (Dengue virus, DENV2, Vero, read-out: EC50 values Ave, A sample, passage 27): 0.15 µg/mL and 257 nM; EC50 (Dengue virus, DENV2, Vero, read-out: EC50 values Ave, A sample, passage 28): 0.15 µg/mL and 257 nM; EC50 (Dengue virus, DENV2, Vero, read-out: EC50 values Ave, A sample, passage 29): 0.15 µg/mL and 257 nM; EC50 (Dengue virus, DENV2, Vero, read-out: EC50 values Ave, A sample, passage 30): 0.15 µg/mL and 257 nM; EC50 (Dengue virus, DENV2, Vero, read-out: EC50 values Ave, A sample, passage 31): 129 nM; EC50 (Dengue virus, DENV2, Vero, read-out: EC50 values Ave, A sample, passage 32): 129 nM; EC50 (Dengue virus, DENV2, Vero, read-out: EC50 values Ave, A sample, passage 33): 0.15 µg/mL and 257 nM; EC50 (Dengue virus, DENV2, Vero, read-out: EC50 values Ave, A sample, passage 34): 0.15 µg/mL and 257 nM; EC50 (Dengue virus, DENV2, Vero, read-out: EC50 values Ave, A sample, passage 35): 0.15 µg/mL and 257 nM; EC50 (Dengue virus, DENV2, Vero, read-out: EC50 values Ave, A sample, passage 36): 0.15 µg/mL and 257 nM; EC50 (Dengue virus, DENV2, Vero, read-out: EC50 values Ave, A sample, passage 37): 0.3 µg/mL and 515 nM; EC50 (Dengue virus, DENV2, Vero, read-out: EC50 values Ave, A sample, passage 38): 0.3 µg/mL and 515 nM; EC50 (Dengue virus, DENV2, Vero, read-out: EC50 values Ave, A sample, passage 39): 1290 nM; EC50 (Dengue virus, DENV2, Vero, read-out: EC50 values Ave, A sample, passage 40): 1290 nM; EC50 (Dengue virus, DENV2, Vero, read-out: EC50 values Ave, A sample, passage 41): 1290 nM; EC50 (Dengue virus, DENV2, Vero, read-out: EC50 values Ave, A sample, passage 42 (END)): 1290 nM; EC50 (Dengue virus, DENV2, Vero, read-out: EC50 values Ave, B sample, passage 1): 3.7e-05 µg/mL and 0.063 nM; EC50 (Dengue virus, DENV2, Vero, read-out: EC50 values Ave, B sample, passage 2): 3.7e-05 µg/mL and 0.063 nM; EC50 (Dengue virus, DENV2, Vero, read-out: EC50 values Ave, B sample, passage 3): 3.7e-05 µg/mL and 0.063 nM; EC50 (Dengue virus, DENV2, Vero, read-out: EC50 values Ave, B sample, passage 4): 3.7e-05 µg/mL and 0.063 nM; EC50 (Dengue virus, DENV2, Vero, read-out: EC50 values Ave, B sample, passage 5): 3.7e-05 µg/mL and 0.063 nM; EC50 (Dengue virus, DENV2, Vero, read-out: EC50 values Ave, B sample, passage 6): 0.126 nM; EC50 (Dengue virus, DENV2, Vero, read-out: EC50 values Ave, B sample, passage 7): 0.126 nM

Reference: publication PMC10033419, “Blocking NS3–NS4B interaction inhibits dengue virus in non-human primates” (Nature, 2023)
